# Where two headings read alike, the source gives them in different places.
# Columns and labels:
# [1] = ob/ob and diet-induced obese mouse, daily administration; cited from earlier work
# [2] = system: circadian rhythms; conditions: cellular reporter assays; cited from earlier work
# [3] = system: circadian rhythms; conditions: in vivo locomotor activity of a variety of species; cited from earlier work
# [4] = including conditioned place preference with cocaine and alcohol reinstatement; cited from earlier work
# [5] = target: T1, human CSNK1D (Homo sapiens, UniProt P48730); experiment: Whole Cell nBRET CSNK1D Binding Assay; conditions: living CHO cells stably expressing human CSNK1D tagged with nanoluciferase; NanoBret tracer 130 nM; 2 hours at 37 C
# T1 construct: expressed in transfected cells
# T1 sequence (P48730 whole entry): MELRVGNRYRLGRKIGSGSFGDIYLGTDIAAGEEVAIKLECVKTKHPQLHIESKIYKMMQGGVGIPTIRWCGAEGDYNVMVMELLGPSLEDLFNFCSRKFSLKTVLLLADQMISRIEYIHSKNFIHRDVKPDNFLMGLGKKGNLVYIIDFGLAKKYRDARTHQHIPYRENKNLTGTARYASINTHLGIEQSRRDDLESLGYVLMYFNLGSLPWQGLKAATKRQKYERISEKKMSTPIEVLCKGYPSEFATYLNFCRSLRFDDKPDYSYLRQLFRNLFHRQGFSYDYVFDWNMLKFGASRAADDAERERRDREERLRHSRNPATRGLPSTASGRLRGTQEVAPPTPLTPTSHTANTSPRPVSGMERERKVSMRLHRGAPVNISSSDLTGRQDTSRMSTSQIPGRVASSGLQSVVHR
# [6] = target: T2, human recombinant GST cleaved CSNK1D (Homo sapiens, UniProt P48730); experiment: Purified Enzyme Assay (ADP-Glo CSNK1D Kinase Assay); type: biochemical; conditions: 2 nM CSNK1D; peptide substrate 150 μM; ATP 20 μM; 45 minutes at room temperature
# T2 construct: GST (cleaved yes); purchased University of Dundee clone DU 19064
# T2 sequence (P48730 whole entry): as above
# Summary of the method: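 Percent activity derived from ADP-Glo quantification of ADP produced. Reactions: compound dose-response with human recombinant GST-cleaved CSNK1D, ATP and substrate peptide PLSRTL-pS-VASLPGL, incubated 45 min at room temperature.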
IC50 [5],IC50 [6],SMILES,glucose tolerance [1],effect on circadian rhythms [2],effect on circadian rhythms [3],efficacy in addiction/substance abuse models [4]
–,–,Nc1nccc(-c2c(-c3ccc(F)cc3)ncn2C2CCN(Cc3ccon3)CC2)n1 [PF-5006739],improve glucose tolerance,significantly lengthened circadian rhythms,significantly lengthened circadian rhythms,–
–,–,Nc1nccc(-c2c(-c3ccc(F)cc3)ncn2C2CCCCC2)n1 [PF-670462],–,significantly lengthened circadian rhythms,significantly lengthened circadian rhythms,shown efficacy
14 nM,5 nM,"[2H]C([2H])([2H])C1(C([2H])([2H])[2H])Cn2nc(-c3ccc(F)cn3)c(-c3cc(C)nc4[nH]nc(Cl)c34)c2CO1 [Example 405, 3-(3-Chloro-6-methyl-1H-pyrazolo[3,4-b]pyridin-4-yl)-2-(5-fluoropyridin-2-yl)-6,6-bis(methyl-d3)-6,7-dihydro-4H-pyrazolo[5,1-c][1,4]oxazine]",–,–,–,–
925 nM,45 nM,"C[C@@H]1OCc2c(-c3ccnc4[nH]ncc34)c(-c3ccc(F)cn3)nn2[C@@H]1C (single isomer, unassigned) [Example 117, (6*S,7*R)-2-(5-Fluoropyridin-2-yl)-6,7-dimethyl-3-(1H-pyrazolo[3,4-b]pyridin-4-yl)-6,7-dihydro-4H-pyrazolo[5,1-c][1,4]oxazine]",–,–,–,–
624 nM,31 nM,"COc1cnccc1-c1c(-c2ccc(F)cn2)nn2c1COC(C)(C)C2 [Example 130, 2-(5-Fluoropyridin-2-yl)-3-(3-methoxypyridin-4-yl)-6,6-dimethyl-6,7-dihydro-4H-pyrazolo[5,1-c][1,4]oxazine]",–,–,–,–
19 nM,2 nM,"Cc1cc(-c2c(-c3ccc(F)cc3)nn3c2CC[C@H]3C)c2cn[nH]c2n1 [Example 18, 4-[(6R)-2-(4-Fluorophenyl)-6-methyl-5,6-dihydro-4H-pyrrolo[1,2-b]pyrazol-3-yl]-6-methyl-1H-pyrazolo[3,4-b]pyridine]",–,–,–,–

# Source: patent publication US20230339970A1, “CASEIN KINASE 1 DELTA MODULATORS” (priority 2020, published 2023)
